We go through 19 compounds from PubChem BioAssay (NCI).

Molecules are shown by their SMILES. “And” between values parts separate entries of the source, which are not always exact repeats. Equal values may be shown once.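 Where inhibition never reached the appropriate level, the endpoint shown equals the highest concentration tested. Otherwise, values were interpolated linearly from a five-concentration, 48-hour dose response in 96-well plates. The concentration for 50% growth inhibition is given as GI50. TGI is the concentration that stops growth completely.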

Holding throughout (assay): NCI anticancer screen, dose series, 48 h
The test system of assay [1] is SNB-19 CNS.
In assay [2] the test system is HCT-15 colon.
For assay [3], the system named is UO-31 renal.
The test system of assay [4] is A498 renal.
The subject of assay [5] is CCRF-CEM leukemia.
The test system of assay [6] is SN12C renal.
The test system of assay [7] is MCF7 breast.
The test system of assay [8] is RXF 393 renal.
Assay [9] relates to SK-OV-3 ovarian.
Assay [10] deals with SK-MEL-2 melanoma.

For the compound `C/C(=C\CCc1ccsc1)CC/C=C(\C)CCCN1CCN(CCO)CC1`, the GI50 in assay [1] was 4.4 µM; in assay [2], 2.42 µM; in assay [3] it was 4.95 µM; in assay [4] it was 2.45 µM; in assay [5], 2.28 µM; in assay [6] it was 4.13 µM. Also, the GI50 in assay [7] is 2.85 µM; in assay [8] it was 1.82 µM; in assay [9], 7.58 µM. Further, the TGI in [1] was determined as 21 µM; in assay [2] it was 6.31 µM; in assay [3], 20.5 µM; in assay [4], 7.51 µM; in assay [5] it was 6.51 µM; in [6], 19.2 µM. Further, the TGI turned out to be 8.56 µM in assay [7], 5.42 µM in assay [8] and 21 µM in assay [9].
`c1cc2ccc3cc2cc1CNCCOCCNCc1ccc2ccc(cc2c1)CNCCOCCNC3`: the GI50 in assay [1], in assay [2], in [3], in assay [4], in [6] and in [10] was over 100 µM throughout. Besides, the GI50 in [7], in assay [8] and in assay [9] was over 100 µM each time. The TGI in [1], in [2], in [3], in assay [4], in assay [6] and in assay [10] was over 100 µM throughout. In addition, the TGI in assay [7], in assay [8] and in assay [9] was over 100 µM throughout.
In the case of `COc1cc(C2CC(=O)c3c(C)nn(-c4nc5ccccc5[nH]4)c3C2)cc(OC)c1OC` (stereo unspecified), the GI50 in assay [2] was over 100 µM; in assay [4], 7.06 µM; in assay [5], over 100 µM; in assay [7], over 100 µM; in assay [8] it was 2.12 µM; in [9] it was 4.12 µM. For the same compound, the TGI in assay [2] was over 100 µM; in assay [4], over 100 µM; in [5], over 100 µM; in assay [7] it was over 100 µM; in assay [8], 7.8 µM; in assay [9], over 100 µM.
Consider `Cc1ccc(-n2nnc3c(sc4ccccc43)c2=O)cc1`, for which the GI50 in assay [1] is 6.22 µM; in [2], over 100 µM; in assay [3] it was 2.24 µM; in assay [4] it was 30.9 µM; in assay [6] it was over 100 µM; in assay [10], 99 µM. In addition, the figures for the GI50 in assay [7], in assay [8] and in assay [9] were 43.7 µM, 16.8 µM and 3.54 µM, respectively. The TGI in [1] is over 100 µM; in [2] it was over 100 µM; in [3], 7.75 µM; in assay [4], over 100 µM; in assay [6] it was over 100 µM; in assay [10], over 100 µM. In addition, the TGI in assay [7] was over 100 µM; in assay [8] it was over 100 µM; in assay [9] it was 19.4 µM.
For the compound `COc1ccc(-c2nnc(Nc3nc(O)c(C4=c5cc(OC(F)(F)F)ccc5=NC4=O)s3)o2)cc1`, the GI50 is 9.67 µM in [1]; 20.4 µM in assay [2]; 21.9 µM in [3]; 25.5 µM in assay [5]; 16.5 µM in [6]; 20.3 µM in assay [10]. In addition, the GI50 was 39.7 µM in [7], 13.9 µM in [8] and 17.4 µM in assay [9]. Besides, the TGI in [1] is 31.2 µM; in [2] it was 80.4 µM; in assay [3], 54.3 µM; in [5], 51.1 µM; in assay [6], 40.5 µM; in assay [10], 39.3 µM. Also, the TGI in [7] is over 100 µM; in assay [8], 29.1 µM; in assay [9], 44 µM.
Take `O=C(N/N=C/c1ccncc1)c1ccc(C(F)(F)F)nc1Nc1cccc(C(F)(F)F)c1`: the GI50 in [1] was 2.67 µM; in assay [2] it was 0.804 µM; in assay [3], 2.49 µM; in assay [4] it was 2.91 µM; in [6], 2.37 µM; in assay [7], 2.27 µM. Moreover, the GI50 in assay [8] was 1.51 µM; in assay [9], 2.13 µM. Besides, the TGI was found to be 11.8 µM in assay [1]; 11.7 µM in assay [2]; 10.2 µM in assay [3]; 10 µM in assay [4]; 11.5 µM in assay [6]; 8.52 µM in assay [7]. Moreover, the TGI in [8] came to 5.28 µM; in assay [9], 6.67 µM.
As for `Cc1ccc(NC(C(=O)c2ccccc2)c2ccccc2)cc1` (stereo unspecified), the GI50 in assay [1] was 4.26 µM; in assay [2] it was 27.7 µM; in [3], 13.8 µM; in [4], 2.91 µM; in assay [5] it was 3.98 µM; in assay [6], 3.55 µM. The GI50 in assay [7] was 3.79 µM; in [8], 17.6 µM; in assay [9] it was 15.8 µM. The TGI was over 100 µM in assay [1]; over 100 µM in [2]; 35.8 µM in [3]; 15.5 µM in [4]; 51.1 µM in assay [5]; over 100 µM in assay [6]. The TGI came out at 40.7 µM in assay [7], 46.3 µM in assay [8] and 58.2 µM in [9].
As to `CCOP(=O)(CCN1CCN(CCCCCOc2cc3c(cc2OC)C(=O)N2CCC[C@H]2C=N3)CC1)OCC`, the GI50 is 5.65 µM in assay [1]; 80 µM in assay [2]; 17.7 µM in assay [3]; 15 µM in assay [4]; 5.18 µM in [6]; 12.5 µM in assay [10]. Moreover, the GI50 in assay [7] is 1.89 µM; in assay [8] it was 1.77 µM; in assay [9], 23.9 µM. Besides, the TGI is over 100 µM in [1]; over 100 µM in assay [2]; 44.8 µM in [3]; 43 µM in assay [4]; over 100 µM in assay [6]; 32 µM in assay [10]. The TGI amounted to 23.8 µM in assay [7], 6.59 µM in assay [8] and 99.8 µM in assay [9].
Regarding `Cc1cc(C(=O)N2CCN(C)CC2)c2c(=O)n(-c3ccccc3)c(=O)n(CC(O)CN3CCN(c4ncccn4)CC3)c2n1` (stereo unspecified), the GI50 in assay [1], in [2], in assay [3], in assay [4], in assay [6] and in assay [10] was over 100 µM each time. In addition, the GI50 in [7] and in assay [9] was over 100 µM throughout. Moreover, the TGI in assay [1], in assay [2], in assay [3], in [4], in assay [6] and in assay [10] was over 100 µM each time. Also, the TGI in assay [7] and in assay [9] was over 100 µM each time.
For `O=C(O)c1ccccc1-c1ccccc1C(=O)Nc1ccc2c(c1)Cc1ccccc1-2`, the TGI in [1] is over 100 µM; in [2] it was 56 µM; in assay [3], over 100 µM; in assay [4], 44 µM; in assay [6], over 100 µM; in [10] it was 50.7 µM. The TGI in assay [7], in assay [8] and in assay [9] was over 100 µM in each case.
As for `S=C(Nc1ccc(Cl)cc1)SC1CCCCC1`, the TGI in [1] was 53.6 µM; in assay [2], 69.4 µM; in [3], over 100 µM; in [5], over 100 µM; in assay [6] it was 51.3 µM; in [10], 39.9 µM. The TGI stood at 40.6 µM in assay [7], 58.9 µM in assay [8] and 94.9 µM in assay [9].
In the case of `O=[N+]([O-])c1ccc(Oc2cccc(C(F)(F)F)c2)c([N+](=O)[O-])c1`, the GI50 in assay [1] was 5.25 µM; in [2] it was 2.41 µM; in assay [3] it was 3.15 µM; in assay [4] it was 12.7 µM; in assay [5], 0.296 µM; in assay [6] it was 3.63 µM. Further, the results for the GI50 in assay [10], in assay [7] and in assay [8] were 3.81 µM, 2.81 µM and 2.61 µM, respectively. Also, the TGI amounted to 18.3 µM in assay [1]; 10.3 µM in [2]; 13.8 µM in assay [3]; 25.3 µM in assay [4]; 3.18 µM in assay [5]; 13.4 µM in [6]. Also, the TGI in assay [10] is 9.82 µM; in assay [7], 8.33 µM; in [8], 7.87 µM.
As to `O=S(=O)(CC(O)C(Cl)(Cl)Cl)NNc1ccccc1` (stereo unspecified), the TGI in assay [1], in [2], in assay [4], in assay [5], in [6] and in assay [10] was over 100 µM throughout. In addition, the TGI in assay [7], in [8] and in assay [9] was over 100 µM in each case.
Take `CC[C@@]1(O)C(=O)OCc2c1cc1n(c2=O)Cc2cc3c(Cl)c4c(cc3nc2-1)OCO4`: the GI50 is 0.00125 µM in [1]; 0.215 µM and 0.178 µM in [2]; under 0.001 µM in assay [3]; 0.00182 µM in [4]; under 0.001 µM in assay [5]; under 0.001 µM in [6]. Moreover, the GI50 is 0.0371 µM and 0.014 µM in assay [8]; 0.00265 µM and 0.0176 µM in assay [9]. For the same compound, the TGI is 0.26 µM in assay [1]; over 100 µM in assay [2]; 0.309 µM and 1.19 µM in assay [4]; over 100 µM in assay [5]; 0.193 µM in assay [7]; 2.22 µM and 0.23 µM in assay [8].
`CC(=O)NC1CCCN(O)C(=O)/C=C(/C)CCOC(=O)C(NC(C)=O)CCCN(O)C(=O)/C=C(/C)CCOC(=O)C(NC(C)=O)CCCN(O)C(=O)/C=C(/C)CCOC1=O.[Fe]` (stereo unspecified): the GI50 in assay [1], in assay [2], in assay [3], in [4], in [5] and in assay [6] was over 100 µM each time. For the same compound, the GI50 in assay [10] and in [7] was over 100 µM in each case. Further, the TGI in assay [1], in assay [2], in assay [3], in [4], in assay [5] and in assay [6] was over 100 µM in each case. Besides, the TGI in assay [10] and in assay [7] was over 100 µM in each case.
With `Cc1cn(C2CC(N=[N+]=[N-])C(CO)O2)c(=O)[nH]c1=O` (stereo unspecified), the GI50 is over 1000 µM in assay [2]; over 1000 µM in assay [3]; over 1000 µM in assay [6]; over 1000 µM in [10]; 50.1 µM in assay [7]; over 1000 µM in assay [9]. Besides, the TGI in [2], in assay [3], in assay [5], in assay [6], in assay [10] and in assay [7] was over 1000 µM in each case. Besides, the TGI in assay [9] is over 1000 µM.
`COc1cccc(C(C#N)NC23CC4CC(CC(C4)C2)C3)c1` (stereo unspecified): the TGI in assay [1], in assay [2], in assay [3], in assay [5], in [6] and in assay [10] was over 100 µM in each case. The TGI in assay [7], in assay [8] and in assay [9] was over 100 µM in each case.
With `O=Cc1c[nH]c2ccc(-c3csc4ccccc34)cc12`, the GI50 in [1] is 5.98 µM; in assay [2] it was 2.98 µM; in assay [3], 8.04 µM; in assay [4] it was 2.86 µM; in assay [5], 2.64 µM; in assay [10], 2.65 µM. The GI50 was 3.48 µM in [7], 1.58 µM in [8] and 5.34 µM in assay [9]. Besides, the TGI in [1] was over 100 µM; in assay [2] it was over 100 µM; in [3], over 100 µM; in [4] it was 9.44 µM; in [5], 10.6 µM; in assay [10], over 100 µM. Further, the TGI is over 100 µM in assay [7], 5.13 µM in [8] and over 100 µM in assay [9].
Take `CC(C)(C)C1CCC(CI)(N=[N+]=[N-])CC1` (stereo unspecified): the TGI in assay [1], in [2], in assay [3], in assay [4], in assay [5] and in assay [6] was over 100 µM in each case. Also, the TGI in assay [10], in assay [8] and in assay [9] was over 100 µM in each case.
